# Results as given in PubChem BioAssay (NCI).
#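 Five compound concentrations were applied to cells in 96-well plates for 48 hours; endpoints were derived by simple linear interpolation of the resulting dose-response curve. GI50: concentration for 50% inhibition of growth. Definition used: TGI = concentration required for complete inhibition of growth.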
# Experiments:
# Assay in all cases: DTP human tumour cell line panel, 48 h
# A549 NSCLC = system: A549 NSCLC
# CCRF-CEM leukemia = system: CCRF-CEM leukemia
# HL-60(TB) leukemia = system: HL-60(TB) leukemia
# KM12 colon = system: KM12 colon
# M14 melanoma = system: M14 melanoma
# MALME-3M melanoma = system: MALME-3M melanoma
# SNB-75 CNS = system: SNB-75 CNS
# T-47D breast = system: T-47D breast
# U251 CNS = system: U251 CNS
# UO-31 renal = system: UO-31 renal
Structure (SMILES),GI50 (A549 NSCLC),TGI (A549 NSCLC),GI50 (CCRF-CEM leukemia),TGI (CCRF-CEM leukemia),GI50 (HL-60(TB) leukemia),TGI (HL-60(TB) leukemia),GI50 (KM12 colon),TGI (KM12 colon),GI50 (M14 melanoma),TGI (M14 melanoma),GI50 (MALME-3M melanoma),TGI (MALME-3M melanoma),GI50 (SNB-75 CNS),TGI (SNB-75 CNS),GI50 (T-47D breast),TGI (T-47D breast),GI50 (U251 CNS),TGI (U251 CNS),GI50 (UO-31 renal),TGI (UO-31 renal)
N#Cc1ccc(NC(=O)Nc2nc3ccc(OC(F)(F)F)cc3s2)cc1,1.21 µM,11.1 µM,1.51 µM,> 100 µM,2.44 µM,21.3 µM,1.02 µM,6.89 µM,2.37 µM,6.53 µM,0.843 µM,5.92 µM,1.84 µM,7.19 µM,0.428 µM,5.8 µM,1.43 µM,11.4 µM,1.67 µM,7.92 µM
COC1C(O)CC(OC2CC(OC3CC(O[C@@H]4C(=O)c5c(cc6cc(OC7CC(OC8CC(O)C(O)C(C)O8)C(O)C(C)O7)c(C)c(O)c6c5O)CC4[C@H](OC)[C@@H](O)C(C)=O)OC(C)C3O)OC(C)C2O)OC1C (stereo not given in full),0.00797 µM,> 33.3 µM,0.0233 µM,> 33.3 µM,0.0236 µM,6.94 µM,0.0124 µM,> 33.3 µM,0.0202 µM,3.91 µM,0.0181 µM,1.28 µM,0.0184 µM,3.32 µM,0.0124 µM,0.307 µM,0.0125 µM,> 33.3 µM,0.0315 µM,11.3 µM
CN1CCN(c2ccc(-c3cccc(CN4CCOCC4)c3)cc2NC(=O)c2c[nH]c(=O)cc2C(F)(F)F)CC1,53.5 µM,> 100 µM,58.8 µM,> 100 µM,36.4 µM,> 100 µM,46.8 µM,> 100 µM,17.2 µM,36.9 µM,21.6 µM,51.4 µM,13.6 µM,99.8 µM,31.3 µM,> 100 µM,23.6 µM,> 100 µM,49 µM,> 100 µM
COc1ccccc1N1CCN(CCCOc2ccc(C(=O)/C=C3/C(=O)Nc4ccccc43)cc2)CC1,22.1 µM,> 100 µM,3.07 µM,> 43.2 µM,6.09 µM,27.2 µM,8.2 µM,24.8 µM,11 µM,27 µM,0.589 µM,22.9 µM,14.9 µM,43.9 µM,4.73 µM,> 73 µM,15.4 µM,63.7 µM,16.3 µM,> 100 µM
C[C@@H]1OC(=O)NN=C1c1ccc(-c2ccc(F)cc2)c(C(F)(F)F)c1,8.21 µM,22.8 µM,8.25 µM,> 100 µM,7.93 µM,> 100 µM,5.95 µM,19.5 µM,7.14 µM,21.6 µM,12.5 µM,25.8 µM,5 µM,20.4 µM,5.26 µM,25.8 µM,10.2 µM,23.3 µM,7.79 µM,20.9 µM
CN[C@H]1CC[C@]23C[C@]24CC[C@]2(C)[C@@H]([C@H](C)N(C)C)CC[C@@]2(C)[C@@H]4CC[C@H]3C1(C)C,–,39.2 µM,–,98.8 µM,–,36.3 µM,–,31.8 µM,–,37.2 µM,–,32.6 µM,–,33.2 µM,–,35.2 µM,–,27.6 µM,–,24.5 µM
